For five compounds, Ki results are on record in BindingDB's records for doi:10.1124/mol.58.6.1375 (University of Alabama At Birmingham, 2000).

Structures are written as SMILES.

The experiment concerns the target T1, Gamma-aminobutyric acid receptor subunit rho-3 (Homo sapiens, UniProt A8MPY1).
T1 sequence (A8MPY1 whole entry): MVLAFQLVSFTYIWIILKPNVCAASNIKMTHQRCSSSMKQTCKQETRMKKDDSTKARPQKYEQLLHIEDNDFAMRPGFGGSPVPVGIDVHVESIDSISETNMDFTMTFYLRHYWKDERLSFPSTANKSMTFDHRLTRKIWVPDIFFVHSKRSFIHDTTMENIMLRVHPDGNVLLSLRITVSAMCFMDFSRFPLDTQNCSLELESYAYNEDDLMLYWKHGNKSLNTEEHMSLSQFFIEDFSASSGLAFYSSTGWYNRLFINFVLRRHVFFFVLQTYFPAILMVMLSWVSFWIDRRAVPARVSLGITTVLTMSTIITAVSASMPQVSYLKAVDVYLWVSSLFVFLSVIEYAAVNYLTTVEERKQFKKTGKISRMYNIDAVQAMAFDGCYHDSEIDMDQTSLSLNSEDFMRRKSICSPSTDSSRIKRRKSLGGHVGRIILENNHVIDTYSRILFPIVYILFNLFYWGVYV
For `NCc1cc(=O)[nH]o1`, affinity was put at a Ki of 460 nM. Then `O=C(O)C1=CCNCC1` [1,2,3,6-Tetrahydro-pyridine-4-carboxylic acid], with > 10000 nM; and `O=C(O)Cc1c[nH]cn1` [1H-imidazol-4-ylacetic acid], with 150 nM. The value for `NCCCC(=O)O` [4-amino-n-[2,3-3H]butyric acid] was 580 nM; that for `N[C@@H]1C(=O)N2C(C(=O)O)=C(CSc3cnn[nH]3)CS[C@H]12` [CAS_37539-03-0] was 360 nM.
